Molecular target: T1, TcTRPA1 (Tribolium castaneum, UniProt A0A139WJZ5)
T1 sequence (A0A139WJZ5 1-1242): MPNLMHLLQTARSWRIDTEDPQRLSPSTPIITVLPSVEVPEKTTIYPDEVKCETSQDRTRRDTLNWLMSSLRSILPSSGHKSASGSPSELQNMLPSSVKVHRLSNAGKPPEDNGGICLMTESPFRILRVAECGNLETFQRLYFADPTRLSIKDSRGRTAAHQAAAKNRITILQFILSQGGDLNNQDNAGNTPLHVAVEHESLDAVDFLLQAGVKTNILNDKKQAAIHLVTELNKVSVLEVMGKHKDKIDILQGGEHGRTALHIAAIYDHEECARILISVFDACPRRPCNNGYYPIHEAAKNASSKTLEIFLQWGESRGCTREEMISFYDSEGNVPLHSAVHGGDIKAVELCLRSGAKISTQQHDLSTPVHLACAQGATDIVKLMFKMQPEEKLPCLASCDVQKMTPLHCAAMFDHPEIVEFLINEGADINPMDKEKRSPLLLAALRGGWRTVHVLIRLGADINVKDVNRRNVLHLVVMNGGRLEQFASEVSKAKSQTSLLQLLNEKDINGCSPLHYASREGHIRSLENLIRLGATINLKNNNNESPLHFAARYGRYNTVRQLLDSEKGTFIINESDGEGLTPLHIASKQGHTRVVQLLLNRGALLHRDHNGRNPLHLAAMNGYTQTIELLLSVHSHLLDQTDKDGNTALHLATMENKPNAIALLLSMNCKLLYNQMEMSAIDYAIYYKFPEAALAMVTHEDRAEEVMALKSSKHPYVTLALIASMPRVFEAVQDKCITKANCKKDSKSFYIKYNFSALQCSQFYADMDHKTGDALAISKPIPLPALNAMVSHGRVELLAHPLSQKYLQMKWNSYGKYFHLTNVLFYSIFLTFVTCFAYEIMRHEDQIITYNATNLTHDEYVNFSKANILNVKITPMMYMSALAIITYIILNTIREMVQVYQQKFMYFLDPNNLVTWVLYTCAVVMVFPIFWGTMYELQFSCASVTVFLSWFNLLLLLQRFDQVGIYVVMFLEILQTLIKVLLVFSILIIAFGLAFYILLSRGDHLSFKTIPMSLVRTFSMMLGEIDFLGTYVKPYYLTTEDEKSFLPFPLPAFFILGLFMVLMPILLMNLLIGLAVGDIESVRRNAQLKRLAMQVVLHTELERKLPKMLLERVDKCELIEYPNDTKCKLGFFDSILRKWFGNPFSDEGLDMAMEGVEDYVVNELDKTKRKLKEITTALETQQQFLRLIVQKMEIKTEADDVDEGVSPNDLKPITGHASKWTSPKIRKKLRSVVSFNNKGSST
Experiment: Ca2+ influx fluorescence assay
Format: cell-based

EC50: 69.7 µM
SMILES: CC(C)=CCCC(C)CC=O (stereo not shown) [citronellal]
